# Source: patent publication US12325697B2 (Nimbus Clio, Inc., priority 2021, dated 2025)
# pEC50, pIC50: −log10 of the molar value.
# What was measured:
# [1] = tested on: Jurkat (clone E6-1) cells, NFAT luciferase reporter; experiment: Jurkat Reporter Assay (NFAT Luciferase); type: cell-based; details: Homo sapiens, anti-CD3 stimulation, 6 hr, read-out: Jurkat NFAT EC50
# [2] = tested on: Phospho-Zap70 (Y-319) in Jurkat wild-type (clone E6-1) cells; experiment: Jurkat pZAP70 HTRF Assay; type: cell-based; details: Homo sapiens, anti-CD3 5 μg/ml, 3 hr, read-out: ZAP70 Jurkat EC50
# [3] = biological target: Recombinant human Cbl-b (aa 36-427) (Homo sapiens (Human), UniProt Q13191); experiment: Cbl-b Biochemical Assay (TR-FRET); details: read-out: TR-FRET hCbl-b IC50
# Chain of Recombinant human Cbl-b (aa 36-427) (Q13191 36-427): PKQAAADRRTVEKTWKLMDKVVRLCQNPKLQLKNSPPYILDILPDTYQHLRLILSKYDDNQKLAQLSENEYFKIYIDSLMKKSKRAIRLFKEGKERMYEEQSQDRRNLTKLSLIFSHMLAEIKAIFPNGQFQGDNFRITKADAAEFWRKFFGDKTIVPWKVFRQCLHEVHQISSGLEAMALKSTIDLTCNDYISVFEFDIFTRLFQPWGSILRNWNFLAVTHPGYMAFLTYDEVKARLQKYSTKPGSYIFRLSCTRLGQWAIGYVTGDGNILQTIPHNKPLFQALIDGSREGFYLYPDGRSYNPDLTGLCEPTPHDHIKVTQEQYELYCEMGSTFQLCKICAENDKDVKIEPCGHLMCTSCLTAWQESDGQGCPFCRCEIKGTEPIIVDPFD
# Outline: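 IC50 from 4-parameter fit of % inhibition (DMSO max, reference-inhibitor min), duplicate ten-point series. Compound preincubated with 6 nM Cbl-b, then Src-Zap70 (1-2.5 nM)/0.5 mM ATP reaction 60 min RT; EDTA quench with labelled UBE2D2-Ub and streptavidin-terbium, 60 min, HTRF at 520 nm.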
SMILES,pEC50 [1],pEC50 [2],pIC50 [3]
"COCCNCc1ccc2c(c1)C(=O)N(c1cc(-c3ccc(C#N)cc3-c3nncn3C)cc(C3CC3)n1)C2 [AGO-2, 4-(2-Cyclopropyl-6-(6-(((2-methoxyethyl)amino)methyl)-1-oxoisoindolin-2-yl)pyridin-4-yl)-3-(4-methyl-4H-1,2,4-triazol-3-yl)benzonitrile]",> 6.70,> 6.70,≥ 6.70
"Cn1cnnc1-c1cc(F)ccc1-c1cc(C2CC2)nc(N2Cc3ccc(CNCC4(O)CCCC4)cc3C2=O)c1 [AGP-1, 2-{6-Cyclopropyl-4-[4-fluoro-2-(4-methyl-1,2,4-triazol-3-yl)phenyl]pyridin-2-yl}-6-({[(1-hydroxycyclopentyl)methyl]amino}methyl)-3H-isoindol-1-one]",> 6.70,6.00 to 6.70,≥ 6.70
"CCOc1cc(-c2ccc(F)cc2-c2nncn2C)cc(N2Cc3c(cc(CNCC4(O)CCC4)cc3C(F)(F)F)C2=O)n1 [AGQ-2, 2-{6-Ethoxy-4-[4-fluoro-2-(4-methyl-1,2,4-triazol-3-yl)phenyl]pyridin-2-yl}-6-({[(1-hydroxycyclobutyl)methyl]amino}methyl)-4-(trifluoromethyl)-3H-isoindol-1-one]",> 6.70,6.00 to 6.70,≥ 6.70
"CCOc1cc(-c2ccc(F)cc2-c2nncn2C)cc(N2Cc3ccc(CNCC4(O)CCC4)cc3C2=O)n1 [AGR-1, 2-{6-Ethoxy-4-[4-fluoro-2-(4-methyl-1,2,4-triazol-3-yl)phenyl]pyridin-2-yl}-6-({[(1-hydroxycyclobutyl)methyl]amino}methyl)-3H-isoindol-1-one]",> 6.70,> 6.70,≥ 6.70
CCNc1cc(-c2ccc(F)cc2-c2nncn2C)cc(N2Cc3c(cc(COCC4(N)CCC4)cc3C(F)(F)F)C2=O)n1 [AGS-2],> 6.70,> 6.70,≥ 6.70
"Cn1cnnc1-c1cc(C#N)ccc1-c1cc(C2CC2)nc(N2Cc3ccc(CNCCOC(F)(F)F)cc3C2=O)c1 [AGT-3, 4-{2-Cyclopropyl-6-[1-oxo-6-({[2-(trifluoromethoxy)ethyl]amino}methyl)-3H-isoindol-2-yl]pyridin-4-yl}-3-(4-methyl-1,2,4-triazol-3-yl)benzonitrile]",> 6.70,> 6.70,≥ 6.70
"Cn1cnnc1-c1cc(Cl)ccc1-c1cccc(N2Cc3ccc(CNCC4(O)CCCC4)cc3C2=O)c1 [AGU-10, 2-[4′-Chloro-2′-(4-methyl-1,2,4-triazol-3-yl)-[1,1′-biphenyl]-3-yl]-6-({[(1-hydroxycyclopentyl)methyl]amino}methyl)-3H-isoindol-1-one]",> 6.70,> 6.70,≥ 6.70
"Cn1cnnc1-c1cc(Cl)ccc1-c1cccc(N2Cc3ccc(CNCC4(O)CCC4)cc3C2=O)c1 [AGV-1, 2-[4′-Chloro-2′-(4-methyl-1,2,4-triazol-3-yl)-[1,1′-biphenyl]-3-yl]-6-({[(1-hydroxycyclobutyl)methyl]amino}methyl)-3H-isoindol-1-one]",> 6.70,> 6.70,≥ 6.70
"Cn1cnnc1-c1cc(Cl)ccc1-c1cc(C2CC2)nc(N2Cc3ccc(CNCC4(O)CCC4)cc3C2=O)c1 [AGW-6, 2-{4-[4-Chloro-2-(4-methyl-1,2,4-triazol-3-yl)phenyl]-6-cyclopropylpyridin-2-yl}-6-({[(1-hydroxycyclobutyl)methyl]amino}methyl)-3H-isoindol-1-one]",> 6.70,> 6.70,≥ 6.70
"CNCc1cc2c(c(C(F)(F)F)c1)CN(c1cc(-c3ccc(C#N)cc3-c3nncn3C)cc(C3CC3)n1)C2=O [AGZ-1, 4-(2-Cyclopropyl-6-{6-[(methylamino)methyl]-1-oxo-4-(trifluoromethyl)-3H-isoindol-2-yl}pyridin-4-yl)-3-(4-methyl-1,2,4-triazol-3-yl)benzonitrile]",> 6.70,> 6.70,≥ 6.70
"Cn1cnnc1-c1cc(F)ccc1-c1cccc(N2Cc3ccc(CNCC4(O)CCC4)cc3C2=O)c1 [AHA-2, 2-(4′-Fluoro-2′-(4-methyl-4H-1,2,4-triazol-3-yl)-[1,1′-biphenyl]-3-yl)-6-((((1-hydroxycyclobutyl)methyl)amino)methyl) isoindolin-1-one]",> 6.70,6.00 to 6.70,≥ 6.70
"Cn1cnnc1-c1cc(F)ccc1-c1cccc(N2Cc3ccc(CNCC4(O)CCCC4)cc3C2=O)c1 [AHB-1, 2-(4′-Fluoro-2′-(4-methyl-4H-1,2,4-triazol-3-yl)-[1,1′-biphenyl]-3-yl)-6-((((1-hydroxycyclopentyl)methyl)amino)methyl) isoindolin-1-one]",> 6.70,> 6.70,≥ 6.70
"Cn1cnnc1-c1cc(C#N)ccc1-c1cc(C2CC2)nc(N2Cc3ccc(CN[C@@H]4CCC[C@@H]4O)cc3C2=O)c1 [AHC-1, 4-{2-cyclopropyl-6-[6-({[(1R,2S)-2-hydroxycyclopentyl]amino}methyl)-1-oxo-3H-isoindol-2-yl]pyridin-4-yl}-3-(4-methyl-1,2,4-triazol-3-yl)benzonitrile]",> 6.70,> 6.70,≥ 6.70
"Cn1cnnc1-c1cc(F)ccc1-c1cc(C2CC2)nc(N2Cc3ccc(CNCC(C)(C)O)cc3C2=O)c1 [AHG-2, 2-{6-Cyclopropyl-4-[4-fluoro-2-(4-methyl-1,2,4-triazol-3-yl)phenyl]pyridin-2-yl}-6-{[(2-hydroxy-2-methylpropyl)amino]methyl}-3H-isoindol-1-one]",> 6.70,> 6.70,≥ 6.70
"Cn1cnnc1-c1cc(F)ccc1-c1cc(C2CC2)nc(N2Cc3ccc(CNCC4CCCC4)cc3C2=O)c1 [AHH-3, 6-{[(Cyclopentylmethyl)amino]methyl}-2-{6-cyclopropyl-4-[4-fluoro-2-(4-methyl-1,2,4-triazol-3-yl)phenyl]pyridin-2-yl}-3H-isoindol-1-one]",> 6.70,> 6.70,≥ 6.70
"CN1CC[C@@H](COCc2cc3c(c(C(F)(F)F)c2)CN(c2cc(-c4ccc(F)cc4-c4nncn4C)cc(C4CC4)n2)C3=O)C1 [AHI-4, 2-{6-Cyclopropyl-4-[4-fluoro-2-(4-methyl-1,2,4-triazol-3-yl)phenyl]pyridin-2-yl}-6-({[(3R)-1-methylpyrrolidin-3-yl]methoxy}methyl)-4-(trifluoromethyl)-3H-isoindol-1-one]",> 6.70,6.00 to 6.70,≥ 6.70
"Cn1cnnc1-c1cc(F)ccc1-c1cc(C2CC2)nc(N2Cc3c(cccc3C(F)(F)F)C2=O)c1 [AND-2, 2-{6-Cyclopropyl-4-[4-fluoro-2-(4-methyl-1,2,4-triazol-3-yl)phenyl]pyridin-2-yl}-4-(trifluoromethyl)-3H-isoindol-1-one]",6.00 to 6.70,5.00 to 6.00,≥ 6.70
"Cn1cnnc1-c1ccccc1-c1cccc(N2Cc3c(cc(CNCC4(O)CCC4)cc3C(F)(F)F)C2=O)c1 [AW-2, 6-((((1-Hydroxycyclobutyl)methyl)amino)methyl)-2-(2′-(4-methyl-4H-1,2,4-triazol-3-yl)-[1,1′-biphenyl]-3-yl)-4-(trifluoromethyl)isoindolin-1-one]",> 6.70,> 6.70,≥ 6.70
"Cn1cnnc1-c1ccccc1-c1cccc(N2Cc3c(cc(CNCC(C)(C)O)cc3C(F)(F)F)C2=O)c1 [AZ-2, 6-(((2-Hydroxy-2-methylpropyl)amino)methyl)-2-(2′-(4-methyl-4H-1,2,4-triazol-3-yl)-[1,1′-biphenyl]-3-yl)-4-(trifluoromethyl)isoindolin-1-one]",> 6.70,> 6.70,≥ 6.70
